Columns and labels:
[1] = solid-state properties of the crystalline salt (stability, hygroscopicity); assay type: physicochemical
[2] = applied as a suitable topical formulation

In the case of `C=CC1(C)CC(OC(=O)CSC2CC3CCC(C2)N3C)C2(C)C(C)CCC3(CCC(=O)C32)C(C)C1O.O=C(O)CCC(=O)O` (stereo not drawn) [hydrosuccinate salt, hydrosuccinate salt of mutilin 14-(exo-8-methyl-8-azabicyclo[3.2.1]oct-3-ylsulfanyl)-acetate], the “hygroscopicity of the crystalline form” value [1] is reported as “non-hygroscopic”, the “stability of the crystalline form” value [1] is reported as “stable” and the irritation [2] is reported as “does not cause significant irritation”.
